Among the data in US9682976B2, “Protein kinase C inhibitors and uses thereof” (Rigel Pharmaceuticals, Inc., priority 2012, dated 2017) are EC50 values, retold here.

pEC50: −log10 of the molar value. Bounds are passed on as bounds.

In the first test the test system is PKC mediated IL-2 production. Description: IL-2 ELISA, human primary T cell, anti CD3+CD28+. In kind it is cell-based. As to conditions: Homo sapiens, T-cell, 24 h, human primary T cells stimulated with αCD3 and αCD28, 24 hours. Here is the method:
Compounds 1-328 were tested in a whole cell functional assay for PKC mediated IL-2 production as follows. Human primary T cell isolation and culture: Human primary T cells were prepared as follows. Whole blood was obtained from a healthy volunteer, mixed 1:1 with PBS, layered on to Ficoll Hypaque (Amersham Pharmacia Biotech, Piscataway, N.J., Catalog #17-1440-03) in 2:1 blood/PBS:ficoll ratio and centrifuged for 30 minutes at 4° C. at 1750 rpm. The cells at the serum: ficoll interface were recovered and washed twice with 5 volumes of PBS. These freshly isolated human peripheral blood mononuclear cells were cultured in Yssel's medium containing 40 U/ml IL2 in a flask pre-coated with […] αCD3 and 5 μg/ml αCD28 (Anti-Human CD3, BD Pharmingen Catalog #555336, Anti-Human CD28, Beckman Coulter Catalog #IM1376). The cells were stimulated for 3-4 days, then transferred to a fresh flask and maintained in RPMI (RPMI-1640 with L-Glutamine; Mediatech, Inc., Herndon Va., cat. #10-040-CM) with 10% FBS and 40 U/ml IL-2. The primary T-cells were then washed twice with PBS to remove the IL-2.
Primary T cell stimulation and IL2 ELISA: Human primary T cells (100,000 cells per well) were pre-incubated with or without test compound in Yssel's medium for 1 hour at 37° C. Cells were then stimulated by transferring them to round-bottom 96-well plates pre-coated with […] αCD3 and 5 μg/ml αCD28. For counter assay, cells were instead stimulated by adding 8× stock solutions of PMA and ionomycin in Yssels (for final concentrations of 0.5 ng/ml PMA and 0.1 uM ionomycin, both from Calbiochem). Cells were incubated at 37° C. for 24 hours before 100 μL supernatants were harvested for quantification of IL-2 by ELISA using Human IL-2 Duoset ELISA Kit from R and D Systems, Cat. # DY202E.
Background: In an ELISA, binding on a coated surface is turned into a signal by an enzyme label.
One may read the pEC50 as the negative decadic logarithm of the EC50, by convention in mol/L. Read a low pEC50 as a high EC50. `Fc1cc(C2CC2)c(-n2cnnn2)cc1Nc1ncc(F)c(NC2CCN3CCCC3C2)n1` (racemic) [Compound 24, (±)-N^2-(4-cyclopropyl-2-fluoro-5-(1H-tetrazol-1-yl)phenyl)-5-fluoro-n^4-(octahydroindolizin-7-yl)pyrimidine-2,4-diamine] gave a pEC50 of 6.30 to 7.00.
On the same count and under the same terms, the figure for `Cn1nnn(-c2cc(Nc3ncc(F)c(NC4CCN5C(CCC5(C)C)C4)n3)c(F)cc2C2CC2)c1=O` (racemic) [Compound 26, 1-(5-(5-fluoro-4-(octahydro-3,3-dimethylindolizin-7-ylamino)pyrimidin-2-ylamino)-2-cyclopropyl-4-fluorophenyl)-4-methyl-1H-tetrazol-5(4H)-one] is 5.00 to 6.00; for `Cn1nnn(-c2cc(Nc3ncc(F)c(NC4CCN5CCCC5C4)n3)c(F)cc2C2CC2)c1=O` (racemic) [Compound 27, (±)-1-(5-(5-fluoro-4-(octahydroindolizin-7-ylamino)pyrimidin-2-ylamino)-2-cyclopropyl-4-fluorophenyl)-4-methyl-1H-tetrazol-5(4H)one] it is 5.00 to 6.00; for `Cn1nnn(-c2cc(Nc3ncc(F)c(N[C@@H]4C[C@@H]5CCC(=O)N5C(C)(C)C4)n3)c(F)cc2C2CC2)c1=O` (racemic) [Compound 31, 1-(5-(5-fluoro-4-(hexahydro-5,5-dimethylindolizin-3(5H)-one-7-ylamino)pyrimidin-2-ylamino)-2-cyclopropyl-4-fluorophenyl)-4-methyl-1H-tetrazol-5(4H)-one] it is 5.00 to 6.00.
For `Cn1nnn(-c2cc(Nc3ncc(F)c(N[C@H]4C[C@@H]5CCC(=O)N5C(C)(C)C4)n3)c(F)cc2C2CC2)c1=O` (racemic) [Compound 32, 1-(5-(5-fluoro-4-(hexahydro-5,5-dimethylindolizin-3(5H)-one-7-ylamino)pyrimidin-2-ylamino)-2-cyclopropyl-4-fluorophenyl)-4-methyl-1H-tetrazol-5(4H)-one], the pEC50 was 5.00 to 6.00.
Molecule `Cn1nnn(-c2cc(Nc3ncc(F)c(NC4CC5CCCN5C(C)(C)C4)n3)ccc2OC2COC2)c1=O` (racemic) [Compound 38, 1-(5-(5-fluoro-4-(octahydro-5,5-dimethylindolizin-7-ylamino)pyrimidin-2-ylamino)-2-(oxetan-3-yloxy)phenyl)-4-methyl-1H-tetrazol-5(4H)-one] showed a pEC50 of 6.30 to 7.00.
Take `CC1(C)C[C@H](Nc2nc(Nc3cc(-n4cnnn4)c(C4CC4)cc3F)ncc2F)C[C@@H]2CCCN21` (racemic) [Compound 53, (±)-N^2-(4-cyclopropyl-2-fluoro-5-(1H-tetrazol-1-yl)phenyl)-5-fluoro-n^4-(octahydro-5,5-dimethylindolizin-7-yl)pyrimidine-2,4-diamine]: the pEC50 was greater than 7.00.
The same measure, in the same setting: the figure for `CC1(C)CC(Nc2nc(Nc3ccc(O[C@@H]4CCOC4)c(C#N)c3)ncc2F)CC2CCCN21` (mixture of isomers) [Compound 57, 2-((R)-tetrahydrofuran-3-yloxy)-5-(5-fluoro-4-(octahydro-5,5-dimethylindolizin-7-ylamino)pyrimidin-2-ylamino)benzonitrile] is 6.30 to 7.00; for `CC1(C)CC(Nc2nc(Nc3ccc(O[C@H]4CCOC4)c(C#N)c3)ncc2F)CC2CCCN21` (mixture of isomers) [Compound 60, 2-((S)-tetrahydrofuran-3-yloxy)-5-(5-fluoro-4-(octahydro-5,5-dimethylindolizin-7-ylamino)pyrimidin-2-ylamino)benzonitrile] it is 6.30 to 7.00; for `Cn1nnn(-c2cc(Nc3ncc(C#N)c(N[C@@H]4C[C@@H]5CCCN5C(C)(C)C4)n3)c(F)cc2C2CC2)c1=O` (racemic) [Compound 66, 4-((R/S,S/R)-Octahydro-5,5-dimethylindolizin-7-ylamino)-2-(4-cyclopropyl-2-fluoro-5-(4,5-dihydro-4-methyl-5-oxotetrazol-yl)phenylamino) pyrimidine-5-carbonitrile] it is greater than 7.00.

The test is the same for the next values; noted with them: human primary T cells stimulated with αCD3 and αCD28, 24 hours.
Take `Cn1nnn(-c2cc(Nc3ncc(F)c(N[C@@H]4CCN5C(CCC5(C)C)C4)n3)c(F)cc2C2CC2)c1=O` (mixture of isomers) [Compound 25]: the pEC50 was 5.00 to 6.00.
On the same count and under the same terms, in the case of `CC1(C)Oc2ccc(Nc3ncc(F)c(N[C@H]4C[C@@H]5CCCN5C(C)(C)C4)n3)cc2-n2nnnc21` (single isomer, unassigned) [Compound 3, N2-(4,4-dimethyl-4H-benzo[b]tetrazolo[1,5-d][1,4]oxazin-8-yl)-5-fluoro-N4-(octahydro-5,5-dimethylindolizin-7-amine)pyrimidine-2,4-diamine] it was 6.00 to 6.30; in that of `CC(C)N1CCC(Oc2ccc(Nc3ncc(F)c(N[C@H]4C[C@H]5CCCN5C(C)(C)C4)n3)cc2OC(F)F)CC1` (single isomer, unassigned) [Compound 7, (R/S, S/R, R/R, S/S)-N^2-(4-(1-isopropylpiperidin-4-yloxy)-3-(difluoromethoxy)phenyl)-5-fluoro-N^4-(octahydro-5,5-dimethylindolizin-7-yl)pyrimidine-2,4-diamine], 5.00 to 6.00; in that of `CC(C)N1CCC(Oc2ccc(Nc3ncc(F)c(N[C@@H]4C[C@H]5CCCN5C(C)(C)C4)n3)cc2OC(F)F)CC1` (single isomer, unassigned) [Compound 8, (R/S, S/R, R/R, S/S)-N^2-(4-(1-isopropylpiperidin-4-yloxy)-3-(difluoromethoxy)phenyl)-5-fluoro-N^4-(octahydro-5,5-dimethylindolizin-7-yl)pyrimidine-2,4-diamine], 6.00 to 6.30.
Still for that read-out and setting: in the case of `CC(C)N1CCC(Oc2ccc(Nc3ncc(F)c(N[C@H]4C[C@@H]5CCCN5C(C)(C)C4)n3)cc2OC(F)F)CC1` (single isomer, unassigned) [Compound 9, (R/S, S/R, R/R, S/S)-N^2-(4-(1-isopropylpiperidin-4-yloxy)-3-(difluoromethoxy)phenyl)-5-fluoro-N^4-(octahydro-5,5-dimethylindolizin-7-yl)pyrimidine-2,4-diamine] it was 6.30 to 7.00.
Consider `CC(C)N1CCC(Oc2ccc(Nc3ncc(F)c(N[C@@H]4C[C@@H]5CCCN5C(C)(C)C4)n3)cc2OC(F)F)CC1` (single isomer, unassigned) [Compound 10, (R/S, S/R, R/R, S/S)-N^2-(4-(1-isopropylpiperidin-4-yloxy)-3-(difluoromethoxy)phenyl)-5-fluoro-N^4-(octahydro-5,5-dimethylindolizin-7-yl)pyrimidine-2,4-diamine], for which the negative logarithm of the EC50 (pEC50) was 6.30 to 7.00.
The same measure, in the same setting: in the case of `COc1cc(Nc2ncc(F)c(N[C@H]3C[C@H]4CCCN4C(C)(C)C3)n2)cc(-n2nnnc2C)c1` (single isomer, unassigned) [Compound 11, (R/S, S/R, R/R, S/S)-5-fluoro-N4-(octahydro-5,5-dimethylindolizin-7-yl)N2-(3-methoxy-5-(5-methyl-1H-tetrazol-1-yl)phenyl)pyrimidine-2,4-diamine] it was 5.00 to 6.00; in that of `COc1cc(Nc2ncc(F)c(N[C@@H]3C[C@H]4CCCN4C(C)(C)C3)n2)cc(-n2nnnc2C)c1` (single isomer, unassigned) [Compound 12, (R/S, S/R, R/R, S/S)-5-fluoro-N4-(octahydro-5,5-dimethylindolizin-7-yl)N2-(3-methoxy-5-(5-methyl-1H-tetrazol-1-yl)phenyl)pyrimidine-2,4-diamine], 6.00 to 6.30.
